melting point	SMILES
85 °C	CC(C)CN(C)c1cc2c(cc1Cl)NC(=O)CC(c1cccc(-n3ccnn3)c1)=N2 [Example 175, 8-Chloro-7-(isobutyl-methyl-amino)-4-(3-[1,2,3]triazol-1-yl-phenyl)-1,3-dihydro-benzo[b][1,4]diazepin-2-one]
195 °C	Cc1cc(-c2cccc(C3=Nc4cc(N(C)CC(C)C)c(C(F)(F)F)cc4NC(=O)C3)c2)on1 [Example 118, 7-(Isobutyl-methyl-amino)-4-[3-(3-methyl-isoxazol-5-yl)-phenyl]-8-trifluoromethyl-1,3-dihydro-benzo[b][1,4]diazepin-2-one]
278 to 279 °C	N#Cc1cc(C2=Nc3cc(N4CCCC4)c(F)cc3NC(=O)C2)ccn1 [Example 56, 4-(7-Fluoro-4-oxo-8-pyrrolidin-1-yl-4,5-dihydro-3H-benzo[b][1,4]diazepin-2-yl)-pyridine-2-carbonitrile]
214 to 215 °C	Cc1scnc1-c1cccc(C2=Nc3cc(N(C)C)c(C(F)(F)F)cc3NC(=O)C2)c1 [Example 213, 7-Dimethylamino-4-[3-(5-methyl-thiazol-4-yl)-phenyl]-8-trifluoromethyl-1,3-dihydro-benzo[b][1,4]diazepin-2-one]
208 °C	CC(C)NCc1cnnn1-c1cccc(C2=Nc3cc(N(C)C(C)C)c(Cl)cc3NC(=O)C2)c1 [Example 145, 8-Chloro-4-{3-[5-(isopropylamino-methyl)-[1,2,3]triazol-1-yl]-phenyl}-7-(isopropyl-methyl-amino)-1,3-dihydro-benzo[b][1,4]diazepin-2-one]
157 °C	CC(C)CN(C)c1cc2c(cc1C(F)(F)F)NC(=O)CC(c1cccc(-n3nncc3CN(C)C(C)C)c1)=N2 [Example 141, 7-(Isobutyl-methyl-amino)-4-(3-{5-[(isopropyl-methyl-amino)-methyl]-[1,2,3]triazol-1yl}-phenyl)-8-trifluoromethyl-1,3-dihydro-benzo[b][1,4]diazepin-2-one]
267 °C	Cc1cc(-c2cccc(C3=Nc4cc(N5CCCC5)c(C#N)cc4NC(=O)C3)c2)on1 [Example 104, 2-[3-(3-Methyl-isoxazol-5-yl)-phenyl]-4-oxo-8-pyrrolidin-1-yl-4,5-dihydro-3H-benzo[b][1,4]diazepine-7-carbonitrile]
248 °C	CN(C)c1cc2c(cc1C(F)(F)F)NC(=O)CC(c1ccnc(C#N)c1)=N2 [Example 22, 4-(8-Dimethylamino-4-oxo-7-trifluoromethyl-4,5-dihydro-3H-benzo[b][1,4]diazepin-2-yl)-pyridine-2-carbonitrile]
228 to 229 °C	CN(C)c1cc2c(cc1C(F)(F)F)NC(=O)CC(c1cccc(-n3nccc3CO)c1)=N2 [Example 86, 7-Dimethylamino-4-[3-(5-hydroxymethyl-pyrazol-1-yl)-phenyl]-8-trifluoromethyl-1,3-dihydro-benzo[b][1,4]diazepin-2-one]
249 °C	CC(C)CNc1cc2c(cc1Cl)NC(=O)CC(c1cccc(-n3ccnn3)c1)=N2 [Example 179, 8-Chloro-7-(isobutyl-amino)-4-(3-[1,2,3]triazol-1-yl-phenyl)-1,3-dihydro-benzo[b][1,4]diazepin-2-one]
133 °C	CCCN(C)c1cc2c(cc1C#N)NC(=O)CC(c1cccc(-c3cc(C)no3)c1)=N2 [Example 106, 2-[3-(3-Methyl-isoxazol-5-yl)-phenyl]-8-(methyl-propyl-amino)-4-oxo-4,5-dihydro-3H-benzo[b][1,4]diazepine-7-carbonitrile]
145 to 160 °C	CN(C)Cc1cnnn1-c1cccc(C2=Nc3cc(N(C)C)c(Cl)cc3NC(=O)C2)c1 [Example 20, 8-Chloro-7-dimethylamino-4-[3-(5-dimethylaminomethyl-[1,2,3]triazol-1-yl)-phenyl]-1,3-dihydro-benzo[b][1,4]diazepin-2-one]
165 to 166 °C	CCN(C)c1cc2c(cc1Cl)NC(=O)CC(c1cccc(-c3nc(CO)co3)c1)=N2 [Example 187, 8-Chloro-7-(ethyl-methyl-amino)-4-[3-(4-hydroxymethyl-oxazol-2-yl)-phenyl]-1,3-dihydro-benzo[b][1,4]diazepin-2-one]
75 °C	CN(C)c1cc2c(cc1F)NC(=O)CC(c1cccc(-n3nncc3CO)c1)=N2 [Example 42, 7-Dimethylamino-8-fluoro-4-[3-(5-hydroxymethyl-[1,2,3]triazol-1-yl)-phenyl]-1,3-dihydro-benzo[b][1,4]diazepin-2-one]
170 °C	CCCN(C)c1cc2c(cc1Cl)NC(=O)CC(c1cccc(-n3ncnc3CN(C)C)c1)=N2 [Example 166, 8-Chloro-4-[3-(5-dimethylaminomethyl-[1,2,4]triazol-1-yl)-phenyl]-7-(methyl-propyl-amino)-1,3-dihydro-benzo[b][1,4]diazepin-2-one]
160 °C	CN(C)c1cc2c(cc1C(F)(F)F)NC(=O)CC(c1cccc(-c3cc(CN4CCCC4)no3)c1)=N2 [Example 53, 7-Dimethylamino-4-[3-(3-pyrrolidin-1-ylmethyl-isoxazol-5-yl)-phenyl]-8-trifluoromethyl-1,3-dihydro-benzo[b][1,4]diazepin-2-one]

melting point	SMILES
136 to 137 °C	CCN(C)c1cc2c(cc1Cl)NC(=O)CC(c1cccc(-c3nc(CO)cs3)c1)=N2 [Example 183, 8-Chloro-7-(ethyl-methyl-amino)-4-[3-(4-hydroxymethyl-thiazol-2-yl)-phenyl]-1,3-dihydro-benzo[b][1,4]diazepin-2-one]
225 °C	CN(C)c1cc2c(cc1C(F)(F)F)NC(=O)CC(c1cccc(-c3ccnn3C)c1)=N2 [Example 33, 7-Dimethylamino-4-[3-(2-methyl-2H-pyrazol-3-yl)-phenyl]-8-trifluoromethyl-1,3-dihydro-benzo[b][1,4]diazepin-2-one]
175 °C	CN(C)c1cc2c(cc1C(F)(F)F)NC(=O)CC(c1cccc(-n3cc(CO)cn3)c1)=N2 [Example 68, 7-Dimethylamino-4-[3-(4-hydroxymethyl-pyrazol-1-yl)-phenyl]-8-trifluoromethyl-1,3-dihydro-benzo[b][1,4]diazepin-2-one]
160 °C	CN(C)Cc1cc(-c2cccc(C3=Nc4cc(N(C)C)c(C(F)(F)F)cc4NC(=O)C3)c2)on1 [Example 55, 7-Dimethylamino-4-[3-(3-dimethylaminomethyl-isoxazol-5-yl)-phenyl]-8-trifluoromethyl-1,3-dihydro-benzo[b][1,4]diazepin-2-one]
211 °C (dec.)	CN(C)c1cc2c(cc1Cl)NC(=O)CC(c1cccc(-c3cc(CO)on3)c1)=N2 [Example 49, 8-Chloro-7-dimethylamino-4-[3-(5-hydroxymethyl-isoxazol-3-yl)-phenyl]-1,3-dihydro-benzo[b][1,4]diazepin-2-one]
138 to 143 °C	CN(C)c1cc2c(cc1Cl)NC(=O)CC(c1cccc(-c3nc(CN4CCOCC4)cs3)c1)=N2 [Example 192, 8-Chloro-7-dimethylamino-4-[3-(4-morpholin-4-ylmethyl-thiazol-2-yl)-phenyl]-1,3-dihydro-benzo[b][1,4]diazepin-2-one]
183 °C	CCCN(C)c1cc2c(cc1Cl)NC(=O)CC(c1cccc(-n3ncnc3CN3CCCC3)c1)=N2 [Example 164, 8-Chloro-7-(methyl-propyl-amino)-4-[3-(5-pyrrolidin-1-ylmethyl-[1,2,4]triazol-1-yl)-phenyl]-1,3-dihydro-benzo[b][1,4]diazepin-2-one]
147 °C	CCCN(C)c1cc2c(cc1C(F)(F)F)NC(=O)CC(c1cccc(-n3ccnn3)c1)=N2 [Example 170, 7-(Methyl-propyl-amino)-4-(3-[1,2,3]triazol-1-yl-phenyl)-8-trifluoromethyl-1,3-dihydro-benzo[b][1,4]diazepin-2-one]
197 °C	Cc1cc(-c2cccc(C3=Nc4cc(N(C)C(C)C)c(C#N)cc4NC(=O)C3)c2)on1 [Example 108, 8-(Isopropyl-methyl-amino)-2-[3-(3-methyl-isoxazol-5-yl)-phenyl]-4-oxo-4,5-dihydro-3H-benzo[b][1,4]diazepine-7-carbonitrile]
241 °C	N#Cc1cc(C2=Nc3cc(N4CCC4)c(C(F)(F)F)cc3NC(=O)C2)ccn1 [Example 61, 4-(8-Azetidin-1-yl-4-oxo-7-trifluoromethyl-4,5-dihydro-3H-benzo[b][1,4]diazepin-2-yl)-pyridine-2-carbonitrile]
228 to 230 °C	CN(C)c1cc2c(cc1C(F)(F)F)NC(=O)CC(c1cccc(-n3cncn3)c1)=N2 [Example 74, 7-Dimethylamino-4-(3-[1,2,4]triazol-1-yl-phenyl)-8-trifluoromethyl-1,3-dihydro-benzo[b][1,4]diazepin-2-one]
231 to 234 °C	CN(C)c1cc2c(cc1Cl)NC(=O)CC(c1cccc(-c3csc(Nc4ccncc4)n3)c1)=N2 [Example 197, 8-Chloro-7-dimethylamino-4-{3-[2-(pyridin-4-ylamino)-thiazol-4-yl]-phenyl}-1,3-dihydro-benzo[b][1,4]diazepin-2-one]
193 to 195 °C	CC(C)N(C)c1cc2c(cc1Cl)NC(=O)CC(c1cccc(-c3nc(CO)cs3)c1)=N2 [Example 185, 8-Chloro-4-[3-(4-hydroxymethyl-thiazol-2-yl)-phenyl]-7-(isopropyl-methyl-amino)-1,3-dihydro-benzo[b][1,4]diazepin-2-one]
129 to 130 °C	CNCc1csc(-c2cccc(C3=Nc4cc(N(C)C)c(Cl)cc4NC(=O)C3)c2)n1 [Example 191, 8-Chloro-7-dimethylamino-4-[3-(4-methylaminomethyl-thiazol-2-yl)-phenyl]-1,3-dihydro-benzo[b][1,4]diazepin-2-one]
151 °C	CCCN(C)c1cc2c(cc1Cl)NC(=O)CC(c1cccc(-n3nncc3CN(CC)CC)c1)=N2 [Example 123, 8-Chloro-4-[3-(5-diethylaminomethyl-[1,2,3]triazol-1-yl)-phenyl]-7-(methyl-propyl-amino)-1,3-dihydro-benzo[b][1,4]diazepin-2-one]
195 to 197 °C	Cc1cc(-c2cccc(C3=Nc4cc(N(C)C5CC5)c(Cl)cc4NC(=O)C3)c2)on1 [Example 36, 8-Chloro-7-(cyclopropyl-methyl-amino)-4-[3-(3-methyl-isoxazol-5-yl)-phenyl]-1,3-dihydro-benzo[b][1,4]diazepin-2-one]

— patent publication US6544985B2, “Dihydro-benzo [b][1,4]diazepin-2-one derivatives” (Hoffman-La Roche Inc., priority 2001, dated 2003)
